Data published in patent US12102432B2, “Uses of transdermal glomerular filtration rate measurement in continuous renal replacement therapy” (MediBeacon Inc., priority 2018, dated 2024).
Values joined by “and” are separate entries in the source; they are usually repeats but may differ in a detail not shown here. Identical values can stand only once.

Experiments:
[1] = Meropenem infusion in porcine model before CRRT, blood concentration; format: in vivo, Swine; conditions: infused for 30 minutes
Experimental: Swine (3 male and 3 female, for both CVVH and CVVHD modalities) weighing 35-40 kg were used. In this model, a total functional nephrectomy was achieved by ligation of all renal arteries. Animals were inspected by professional veterinary staff within 48 hours of arrival. Any underlying infections or parasitism was treated based on veterinary recommendations. After taking a pre-MB-102 blood sample (baseline), a dose of 6 mg/kg of MB-102 was injected as a single bolus, followed by a 90 minute period of equilibration, to allow for MB-102 systemic redistribution (see FIGS. 7 and 13 for equilibration of fluorescent signal detected by the renal monitoring assembly). Thirty minutes after the MB-102 injection, Meropenum was infused for 30 minutes, which reached a peak concentration in blood ˜1 hr after the start of the infusion. […] Samples collected during these periods, along with the baseline (BSL) sample taken before the MB-102 dose, were assayed, and measured values were used in calculations to compare clearance rates with real-time MB-102 clearance measurements. […] A similar sample collection time-course was initiated at the high flow rate for both the low and high effluent flow rate data sets (seven sample time points at three circuit sites), allowing for similar comparisons of real-time and calculated clearance rates.

[2] = Adsorption of MB-102 to CRRT apparatus, in vitro CVVH model; format: in vitro ADME, bovine; conditions: for mean percent change at the end of experiment: average of 6 experiments, 60 min; for percent change at the end of each experiment: single experiments 1-6, initial to 60 min, blood flow 200 mL/min, Quf 33 mL/min
Experimental: As an initial step, it was determined if the compound MB-102 adsorbs onto the hemodiafilter, tubing or other parts of the CRRT instrument. This study used a continuous venovenous hemofiltration (CVVH) configuration to assess MB-102 adsorptive clearance with a previously validated in vitro CVVH model using 1 L of pH regulated, citrate-anti-coagulated bovine blood. Using a Braun DIAPACT™ CRRT system, two different hemodiafilters were tested: the HF1400 and the M150 hemodiafilters. New bovine blood, hemodiafilters, and CRRT tubing sets were used in each experiment. The blood was continuously stirred and maintained at 37° C. in a water bath during all experiments. Reconstituted MB-102 was added to the blood to achieve a final concentration of ˜6.2 mg/L. Urea was used as a control and added to the blood to produce a blood urea nitrogen (BUN) concentration of ˜75 mg/dL. Blood flow rates of 200 mL/min with an ultrafiltration rate (Quf) of 33 mL/min were tested. This maximized MB-102 contact with the membranes, both on the blood side and via convection through the hemodiafilter membrane. A closed system was developed to maintain a constant volume in the extracorporeal system. The effluent was used as the replacement fluid which was returned to the blood as a post-filter replacement fluid to maintain a constant blood volume. The CRRT instrument was primed with normal saline before operation, consequently the urea and MB-102 dilution caused by the residual priming solution was accounted for. Blood samples were collected from the pre-filter port at 0 (baseline), 5 (at which time mixing was complete), 10, 20, 30, and 60 minutes. Each experiment was repeated six times with new hemodiafilters and tubing sets.
Equations used to calculate the dilution factor and adsorption are as follows:
[formula] wherein C0 is the concentration of MB-102 in the pre-filter at time=0 minutes; and C60 is the concentration of MB-102 in the pre-filter at time=60 minutes.
[formula] where [Urea0] is the urea concentration in the pre-filter at time=0 minutes; and [Urea60] is the urea concentration in the pre-filter at time=60 minutes.
All blood samples were collected and centrifuged at 3000 rpm for 10 minutes. The plasma and effluent samples were transferred to cryovials in duplicate and stored at −80° C. until analysis. BUN concentrations were analyzed with Advia 1800 (Siemens Healthcare Diagnostic Inc., Tarrytown, N.Y., USA) having a lower limit of quantification of 5 mg/dL. […]

[3] = In vitro continuous hemofiltration (CVVH) model, sieving coefficient; format: in vitro ADME, bovine; conditions: CVVH
Experimental: The procedure for the CVVH study was conducted using the model CVVH system illustrated in FIG. 5. The CLTM of urea and MB-102 were evaluated with different blood flow rates, ultrafiltration rate (Quf) and hemodiafilters (Table 1). In a closed-loop system, the formed effluent was returned to the blood as a post-filter replacement fluid downstream from the post-hemodiafilter blood sampling port. Pre- and post-hemodiafilter blood samples, and effluent samples were collected concurrently. Six experiments were conducted for each hemodiafilter, and new hemodiafilters and CRRT apparatus were used for each experiment. Sieving coefficient (SC) and CLTM were calculated as follows:
[formula] where Sc is the sieving coefficient; Cuf is the concentration in the effluent; Ca is the concentration of the solute in the pre-filter; and Cv is the concentration of the solute in the post-filter. CLconv=SC×QUF Equation (4) wherein CLconv is the convective clearance for the post-filter replacement; QUF is the ultrafiltration rate.
(§1) All blood samples were collected and centrifuged at 3000 rpm for 10 minutes. The plasma and effluent samples were transferred to cryovials in duplicate and stored at −80° C. until analysis. BUN concentrations were analyzed with Advia 1800 (Siemens Healthcare Diagnostic Inc., Tarrytown, N.Y., USA) having a lower limit of quantification of 5 mg/dL.
(§2) Similarly, six CVVH and CVVHD experiments with each hemodiafilter were used to detect a 25% difference in MB-102 CLTM between hemodiafilters. Assumptions used in these calculations included: a power of 90% and a standard deviation of 10% with a significance level of p<0.05. A two-tailed, unpaired t-test was used to compare differences between the two hemodiafilters, and the analysis of variance was used to compare different QUF and Qd within each hemodiafilter type.

[4] = In vitro continuous hemodialysis (CVVHD) model, saturation coefficient; format: in vitro ADME, bovine; conditions: for Saturation coefficient (mean ± SD): CVVHD, blood flow 200 mL/min
Experimental: For CVVHD experiments, the CLTM was assessed using a previously validated in vitro CVVHD model as illustrated in FIG. 6. Commonly used effluent flow rates of 16, 33, 50, and 100 mL/min, and a blood flow rate of 200 mL/min were used. Effluent was prepared according to directions from the manufacturer by mixing sodium bicarbonate powder (NATURALYTE® 4000, Fresenius Medical Care, Waltham, Mass., USA) with distilled water in a 45:1 ratio. After adding MB-102 and urea to the blood, it was recirculated through the circuit for 5 min for uniform coating of the extracorporeal circuit. A single-pass mode of the CVVHD procedure with four different flow rates was run in random order for each hemodiafilter. Blood samples were collected from the pre- and post-filter ports, and spent effluent samples were taken from the effluent port 5 min after initiation of the CVVHD experiments at all four effluent flow rates. These experiments were conducted on 6 new hemodiafilters and CRRT tubing sets. Saturation coefficient (SA) and CLTM were calculated as follows:
[formula] CLdiff=(SA×Qd) Equation (6)
where SA is the saturation coefficient; CUF is the concentration in the effluent; Ca is the concentration of the solute in the pre-filter; CV is the concentration of the solute in the post-filter; CLdiff is the diffusion clearance for post-filter replacement; Qd is the effluent flow rate.
as §1, §2

| time to peak concentration in blood after the start of the infusion [1] | mean percent change at the end of experiment ([2]; HF1400 hemodiafilter) | mean percent change at the end of experiment ([2]; M150 hemodiafilter) | Mean sieving coefficient ([3]; HF1400, ultrafiltration rate 16.7 mL/min) | Mean sieving coefficient ([3]; HF1400, ultrafiltration rate 33.3 mL/min) | Mean sieving coefficient ([3]; HF1400, ultrafiltration rate 50 mL/min) | Mean sieving coefficient ([3]; M150, ultrafiltration rate 16.7 mL/min) | Mean sieving coefficient ([3]; M150, ultrafiltration rate 33.3 mL/min) | Mean sieving coefficient ([3]; M150, ultrafiltration rate 50 mL/min) | Saturation coefficient (mean ± SD) ([4]; HF1400, Qd 16.7 mL/min) | Saturation coefficient (mean ± SD) ([4]; HF1400, Qd 33.3 mL/min) | Saturation coefficient (mean ± SD) ([4]; HF1400, Qd 50 mL/min) | Saturation coefficient (mean ± SD) ([4]; HF1400, Qd 100 mL/min) | Saturation coefficient (mean ± SD) ([4]; M150, Qd 16.7 mL/min) | Saturation coefficient (mean ± SD) ([4]; M150, Qd 33.3 mL/min) | Saturation coefficient (mean ± SD) ([4]; M150, Qd 50 mL/min) | Saturation coefficient (mean ± SD) ([4]; M150, Qd 100 mL/min) | mean SA values ([4]; low effluent flow rates (16-50 mL/min)) | Compound | percent change at the end of each experiment ([2]; HF1400 hemodiafilter) | percent change at the end of each experiment ([2]; M150 hemodiafilter) |
| --- | --- | --- | --- | --- | --- | --- | --- | --- | --- | --- | --- | --- | --- | --- | --- | --- | --- | --- | --- | --- |
| ~1 h |  |  |  |  |  |  |  |  |  |  |  |  |  |  |  |  |  | C[C@@H](O)[C@H]1C(=O)N2C(C(=O)O)=C(S[C@@H]3CN[C@H](C(=O)N(C)C)C3)[C@H](C)[C@H]12 [Meropenem, meropenem] |  |  |
|  | 19.5% | 19.3% | 1.08 ± 0.03 | 1.09 ± 0.05 | 1.08 ± 0.07 | 1.00 ± 0.05 | 1.04 ± 0.10 | 1.05 ± 0.04 | 1.04 ± 0.07 | 1.19 ± 0.09 | 1.17 ± 0.11 | 1.17 ± 0.19 | 1.08 ± 0.08 | 1.16 ± 0.04 | 1.15 ± 0.15 | 1.35 ± 0.20 | approximately unity | NC(N)=O [Urea, reference compound] | 19.6% and 20.9% and 18.6% and 20.0% and 18.2% | 17.5% and 19.5% and 21.7% and 18.0% and 17.0% and 22.0% |
